From PMC10726441, “Discovery of Tumor-Targeted 6-Methyl Substituted Pemetrexed and Related Antifolates with Selective Loss of RFC Transport” (ACS Medicinal Chemistry Letters, 2023) come the findings set out here.

The test system of experiment [1] is MTXRIIOuaR2-4 CHO cells (R2; RFC-, PCFT-, and FR-null). As to the kind of experiment: Cell proliferation assay, transporter-null R2 CHO cells. The class given is cell-based, Chinese hamster. The following applies: Cricetulus griseus, 96 h, 0-1000 nM, mean (standard error), 3-5 experiments. The source says:
To assess the impact of 6-methyl substitutions on the bicyclic scaffolds of the pyrrolo[2,3-d]pyrimidine antifolates 1–4 on RFC transport vis-à-vis PCFT, FRα, and FRβ, we used a unique biological readout for transport activity. This involved proliferation assays with isogenic Chinese hamster ovary (CHO) sublines derived from RFC-, FR-, and PCFT-null MTXRIIOua^R2–4 CHO cells[39],[40] engineered to express the human FRα (RT16),[25] FRβ (D4),[25] RFC (PC43–10),[41] or PCFT (R2/PCFT4).[26],[42] As these CHO cell lines are genetically identical except for their folate transporters, differences in inhibition of cell proliferation by specific cytotoxic antifolates directly reflect transporter specificities.[19],[23]−[31],[42] […]
Reagents for biological studies. Leucovorin [(6R,S) 5-formyl tetrahydrofolate] and methotrexate (MTX) was provided by the Drug Development Branch, National Cancer Institute, Bethesda, MD. Other chemicals were obtained from commercial sources in the highest available purities. Pemetrexed (PMX; 1) [N-{4-[2- (2-amino-3,4-dihydro-4-oxo-7H-pyrrolo[2,3-d]pyrimidin-5-yl)ethyl]benzoyl-L-glutamic acid] (Alimta) was purchased from LC Laboratories (Woburn, MA). The syntheses of compounds 2 and 3 were previously described.7, 8 Additional chemicals were purchased from commercial sources in the highest available purities.
Cell Culture. The reduced folate carrier (RFC), proton-coupled folate transporter (SLC46A1; PCFT) and folate receptor (FR) α- and β-null Chinese hamster ovary (CHO) cell line MTXRIIOuaR2-49 was a gift from Dr. Wayne Flintoff (University of Western Ontario, London, ON). Four sublines were derived from the R2 subline by transfection with either RFC, PCFT, FRα, or FRβ, giving rise to PC43-10 (expresses human RFC), 10 R2/PCFT4 (expresses human PCFT),11 RT16 (expresses human FRα), 12 and D4 (expresses FRβ) cells. 12 Isogenic CHO sublines were routinely cultured in α-minimal essential medium (α-MEM) supplemented with 100 units/mL penicillin/100 μg/mL streptomycin, 2 mM L-glutamine and 10% bovine calf serum (Sigma-Aldrich). Transfected sublines of R2 cells were cultured in the presence of 1.5 mg/ml G418. […]
mM L-glutamine. Cell lines were tested for Mycoplasma by PCR using a Mycloplasma testing kit (Venor™ GeM Mycoplasma Detection Kit, Sigma). Frozen stocks were generated from authenticated Mycoplasma-free cultures.
(§1) For cell proliferation assays, CHO, KB, NCI-IGROV1 and IOSE 7576 cells were plated in 96-well dishes at densities ranging from 2500-5000 cells/well in 200 μL media and treated with a range of inhibitors spanning 0-1000 nM. Experiments with RT16, D4, IGROV1, IOSE 7576 and KB cells used folate-free RPMI 1640 (FF RPMI) media with 10% dialyzed fetal bovine serum and 100 units/mL penicillin/100 μg/mL streptomycin, supplemented with 2 nM leucovorin and 2 mM L-glutamine. FR-mediated drug uptake was assessed in parallel incubations including 200 nM folic acid. For R2/PCFT4, PC43-10 and R2 CHO cells, the medium was FF-RPMI supplemented with 10% dialyzed fetal bovine serum, 100 units/mL penicillin/100 μg/mL streptomycin, 25 nM leucovorin and 2 mM L-glutamine.
(§2) Cells were treated over a 96 h period at 37° C with 5% CO2 and relative cell numbers quantified using the CellTiter-blue cell viability assay (Promega, Madison, WI) and a fluorescence plate reader. Raw data were exported to Excel for analysis and the results were plotted using Graphpad Prism 6.0. Determinations of IC50s were made […]
assays have been previously described.7, 8, 11, 12, 15-20
Using KB cells, additional proliferation assays were performed with metabolite protection in folate- and glycine-free RPMI1640 with 10% dialyzed fetal bovine serum, 2 mM L-glutamine and antibiotics with 2 nM leucovorin to identify the targeted pathway and enzyme(s). 7, 8, 11, 12, 15-20 Inhibitory effects of the novel analogs on de novo thymidylate biosynthesis and de novo purine nucleotide biosynthesis were tested by incubating drugs with thymidine (10 μM) and adenosine (60 μM), respectively. […]

The test system of experiment [2] is KB tumor cells; thymidylate and de novo purine nucleotide biosynthesis. The experiment is described as follows: Metabolite protection experiments in KB cells (thymidine, adenosine, glycine, AICA). The conditions noted are these: for targeted pathway from metabolite protection (in words): thymidine 10 μM, adenosine 60 μM, glycine 130 μM, AICA 320 μM. The class given is cell-based, human. The procedure: To identify the targeted pathways/enzymes of these pyrrolo[2,3-d]pyrimidine compounds (1, 2, 4–8), in vitro growth inhibition assays were performed with KB tumor cells in glycine-, adenosine-, and thymidine-free media without additions or in the presence of thymidine (10 μM), adenosine (60 μM), or glycine (130 μM) (both singly and in various combinations; Figure 4).[18],[23]−[25],[28]−[31],[42],[44],[45] For de novo purine biosynthesis inhibitors, protection was also tested with AICA (320 μM), which is metabolized to AICA ribonucleotide (substrate for the AICARFTase reaction, thus circumventing GARFTase).
Figure 4 Metabolite protection experiments. […] Cell densities were measured with a fluorescence assay[25] and a fluorescence plate reader. Results were normalized to cell densities in the absence of drug. Results shown are mean values plus/minus standard errors from triplicate experiments. Experimental details are described in the Supporting Information, and the methods have been previously published.[18],[23]−[25],[28]−[31],[42],[44]
(Vancouver, B.C). IGROV1, KB and IOSE 7576 cells were cultured in complete FF-RPMI with 10% fetal bovine serum and 100 units/mL penicillin/100 μg/mL streptomycin, and 2 mM L-glutamine. Cell lines were tested for Mycoplasma by PCR using a Mycloplasma testing kit (Venor™ GeM Mycoplasma Detection Kit, Sigma). Frozen stocks were generated from authenticated Mycoplasma-free cultures.
as §1, §2
assays have been previously described.7, 8, 11, 12, 15-20 […]

Entries after “also recorded” stand apart in the source; their conditions may differ. A value given as a limit tells only on which side of the number the result lay.

Turning to `Nc1nc2[nH]cc(CCc3ccc(C(=O)N[C@@H](CCC(=O)O)C(=O)O)cc3)c2c(=O)[nH]1` [Compound 1, reference compound], the concentration for half-maximal inhibition (IC50) in experiment [1] is over 1000 nM. The “targeted pathway from metabolite protection (in words)” value (“targeted pathway” for short) in experiment [2] is “inhibited both thymidylate and purine nucleotide biosynthesis”.

`Nc1nc2[nH]cc(CCCc3ccc(C(=O)N[C@@H](CCC(=O)O)C(=O)O)cc3)c2c(=O)[nH]1` [Compound 2] showed an IC50 in experiment [1] of over 1000 nM. Also, the “protection by glycine / mitochondrial C1 metabolism (in words)” value in experiment [2] (glycine 130 μM added to adenosine and thymidine) was “addition of glycine provided greater protection than did adenosine and thymidine alone; also recorded: inhibition of mitochondrial C1 metabolism was also suggested”. Besides, the “targeted pathway” value in experiment [2] is “inhibited both thymidylate and purine nucleotide biosynthesis”.

In experiment [1], `Nc1nc2[nH]cc(CCc3ccc(C(=O)N[C@@H](CCC(=O)O)C(=O)O)s3)c2c(=O)[nH]1` [Compound 3] registered an IC50 of over 1000 nM.

Compound `Nc1nc2[nH]cc(CCc3ccc(C(=O)N[C@@H](CCC(=O)O)C(=O)O)c(F)c3)c2c(=O)[nH]1` [Compound 4] displayed an IC50 in experiment [1] of over 1000 nM. Besides, the “targeted pathway” value in experiment [2] was “inhibited both thymidylate and purine nucleotide biosynthesis”.

In turn, `Cc1[nH]c2nc(N)[nH]c(=O)c2c1CCc1ccc(C(=O)N[C@@H](CCC(=O)O)C(=O)O)cc1` [Compound 5] came in with an IC50 in experiment [1] of over 1000 nM.

In turn, `Cc1[nH]c2nc(N)[nH]c(=O)c2c1CCCc1ccc(C(=O)N[C@@H](CCC(=O)O)C(=O)O)cc1` [Compound 6] yielded an IC50 in experiment [1] of over 1000 nM.

Take `Cc1[nH]c2nc(N)[nH]c(=O)c2c1CCc1ccc(C(=O)N[C@@H](CCC(=O)O)C(=O)O)s1` [Compound 7]: in experiment [1], the IC50 is over 1000 nM.

With `Cc1[nH]c2nc(N)[nH]c(=O)c2c1CCc1ccc(C(=O)N[C@@H](CCC(=O)O)C(=O)O)c(F)c1` [Compound 8], the IC50 in experiment [1] is over 1000 nM.

One may read the IC50 as the concentration at which inhibition is half-maximal. Higher therefore signals lower potency.
